Assay results reported in patent publication US7456197B2, “Pyridinium cationic lipids as gene transfer agents” (The Texas A&M University System, priority 2003, dated 2008).

Experiment: Critical (phase transition) temperature Tc by differential scanning calorimetry
Type: physicochemical
Conditions: for Tc (critical temperature), Pure: pure lipid; for Tc (phase transition temperature): lipids 21 and 25, DSC, heating rate 5° C./minute
Description: General. Melting points for the diols and the phase transition temperature Tc for the cationic lipids were determined by differential scanning calorimetry (DSC), using a TA-Instruments Q100 DSC, and a heating rate of 5° C./minute. The IR spectra were recorded on a Nicolet Avatar 360 FTIR spectrophotometer in the range 650-4000 cm^−1 using a ZnSe—attenuated total reflectance (ATR) accessory. The compounds were solved in a small amount of solvent (MeOH for the diols, CHCl3 for the lipids), and the resulted solutions were left to evaporate to dryness on the surface of the ZnSe crystals of the ATR accessory. The NMR spectra were recorded at ≈303 K with a Varian Inova spectrometer equipped with a 5 mm indirect detection probe, operating at 500 MHz for ^1H-NMR and at 125 MHz for ^13C-NMR. Chemical shifts are reported as δ values, using TMS as internal standard for proton spectra and the solvent resonance for carbon spectra. Assignments were made based on signal intensity, selective decoupling, COSY (^1H-^1H) and HETCOR (^1H-^13C) sequences. Elemental analyses were performed by combustion, using a Perkin Elmer 2400 Series II CHNS analyser.
Dioleoylphosphatidylethanolamine (DOPE), cholesterol (CHOL), N-(2,3-dioleoyloxypropyl)-N,N,N-trimethylammonium chloride (DOTAP) were commercial products. The purity of the lipids was checked by thin layer chromatography and also by differential scanning calorimetry (DSC), which was also used for determining the critical temperature Tc. For the preparation of the liposomes a protocol optimized for this type of compounds was adopted as follows. The cationic lipid (with or without helper lipid) was dissolved in chloroform/methanol (2/1, v/v) to reach a final concentration of 1 mM for the charged species. From this stock solution 50 μL were aliquoted in a 1 mL tube and the solvent was evaporated in a SpeedVac evaporator, under vacuum, for 1 h. The dried lipid film was prepared by removing the traces of organic solvent in a dessicator, over Drierite®, under vacuum, overnight. The film was hydrated with 500 μL sterile phosphate buffer saline (PBS) the tube was purged with sterile N2, and vortexed for 1 minute. The liposomes were generated by sonicating the tube in a water bath sonicator for 5-30 minutes at 62° C. and at 37° C. for DOTAP. After sonication the preparations were allowed to reach room temperature.
Materials and Methods. Melting points for the diols, acetates and ketals were determined on a Boetius heating plate microscope and are uncorrected. For the cationic lipids 21 and 25 the phase transition temperature Tc was determined by differential scanning calorimetry (DSC), using a TA-Instruments Q100 DSC, and a heating rate of 5° C./minute. The IR spectra were recorded on a Nicolet Avatar 360 FTIR spectrophotometer, in the range 650-4000 cm^−1, using a ZnSe—attenuated total reflectance (ATR) accessory. The compounds were solved in a small amount of solvent (MeOH for the diols, CHCl3 for the esters), the resulted solutions being left to evaporate to dryness on the surface of the ZnSe crystals of the ATR accessory. This technique was imposed by the poor results obtained in transmission mode for some of the compounds, due to the lack of crystallization, hygroscopicity and other problems related with working with KBr pellets. The NMR spectra were recorded at ≈303 K with a Varian Gemini 300BB spectrometer operating at 300 MHz for ^1H and at 75 MHz for ^13C. Chemical shifts are reported as δ values, using TMS as internal standard for proton spectra and the solvent resonance for carbon spectra: 77.00 ppm in CDCl3, 39.50 ppm in DMSO-d6, the line from 123.50 ppm in pyridine-d5, 62.80 ppm in nitromethane-d3, 30.10 ppm in dimethylformamide-d7. Assignments were made based on signal intensity, selective decoupling and COSY (^1H-^1H) and HETCOR (^1H-^13C) sequences. Nitrogen elemental analysis was performed by combustion, mixing the samples with small amounts of quartz sand.

## CCCCCCCCCCCC(=O)OCC(C[n+]1c(C)cc(C)cc1C)OC(=O)CCCCCCCCCCC.F[P-](F)(F)(F)(F)F (stereo not drawn) [Lipid 3ALau, 1-(2,3-dilauroyloxypropyl)-2,4,6-trimethylpyridinium hexafluorophosphate]
  Tc (critical temperature), Pure: 114.0 °C
  Tc (critical temperature), With cholesterol (1:1 molar ratio): 106.7 °C

## CCCCCCCCCCCCCCCC(=O)OCC(C[n+]1c(C)cc(C)cc1C)OC(=O)CCCCCCCCCCCCCCC.F[P-](F)(F)(F)(F)F (stereo not drawn) [Lipid 3APal, 1-(2,3-dipamitoyloxypropyl)-2,4,6-trimethylpyridinium hexafluorophosphate]
  Tc (critical temperature), Pure: 123.5 °C
  Tc (critical temperature), With cholesterol (1:1 molar ratio): 114.0 °C

## CCCCCCCCCCCCCCCCCC(=O)OCC(C[n+]1c(C)cc(C)cc1C)OC(=O)CCCCCCCCCCCCCCCCC.F[P-](F)(F)(F)(F)F (stereo not drawn) [Lipid 3ASte, 1-(2,3-distearoyloxypropyl)-2,4,6-trimethylpyridinium hexafluorophosphate]
  Tc (critical temperature), Pure: 122.5 °C
  Tc (critical temperature), With cholesterol (1:1 molar ratio): 112.7 °C

## CCCCCCCCCCCC(=O)OCC(COC(=O)CCCCCCCCCCC)[n+]1c(C)cc(C)cc1C.F[P-](F)(F)(F)(F)F [Lipid 5ALau, 1-(1,3-dilauroyloxypropane-2-yl)-2,4,6-trimethylpyridinium hexafluorophosphate]
  Tc (critical temperature), Pure: 58.2 °C
  Tc (critical temperature), With cholesterol (1:1 molar ratio): 41.9 °C

## CCCCCCCCCCCCCCCC(=O)OCC(COC(=O)CCCCCCCCCCCCCCC)[n+]1c(C)cc(C)cc1C.F[P-](F)(F)(F)(F)F [Lipid 5APal, 1-(1,3-dipamitoyloxypropane-2-yl)-2,4,6-trimethylpyridinium hexafluorophosphate]
  Tc (critical temperature), Pure: 75.5 °C
  Tc (critical temperature), With cholesterol (1:1 molar ratio): 61.0 °C

## CCCCCCCCCCCCCCCCCC(=O)OCC(COC(=O)CCCCCCCCCCCCCCCCC)[n+]1c(C)cc(C)cc1C.F[P-](F)(F)(F)(F)F [Lipid 5ASte, 1-(1,3-distearoyloxypropane-2-yl)-2,4,6-trimethylpyridinium hexafluorophosphate]
  Tc (critical temperature), Pure: 79.6 °C
  Tc (critical temperature), With cholesterol (1:1 molar ratio): 66.1 °C

## CCCCCCCCCC(=O)Oc1ccc(CC[n+]2c(C)cc(C)cc2C)cc1OC(=O)CCCCCCCCC.F[P-](F)(F)(F)(F)F [Lipid 7ACpc, 1-(3,4-didecanoyloxyphenylethyl)-2,4,6-trimethylpyridinium hexafluorophosphate]
  Tc (critical temperature), Pure: 140.0 °C
  Tc (critical temperature), With cholesterol (1:1 molar ratio): 129.2 °C

## CCCCCCCC(=O)Oc1ccc(CC[n+]2c(C)cc(C)cc2C)cc1OC(=O)CCCCCCC.F[P-](F)(F)(F)(F)F [Lipid 7ACpy, 1-(3,4-dioctanoyloxyphenylethyl)-2,4,6-trimethylpyridinium hexafluorophosphate]
  Tc (critical temperature), Pure: 134.1 °C
  Tc (critical temperature), With cholesterol (1:1 molar ratio): 127.3 °C

## CCCCCCCCCCCCCC(=O)Oc1ccc(CC[n+]2c(C)cc(C)cc2C)cc1OC(=O)CCCCCCCCCCCCC.F[P-](F)(F)(F)(F)F [Lipid 7AMyr, 1-(3,4-dimyristoyloxyphenylethyl)-2,4,6-trimethylpyridinium hexafluorophosphate]
  Tc (critical temperature), Pure: 141.2 °C
  Tc (critical temperature), With cholesterol (1:1 molar ratio): 125.8 °C

## CCCCCCCC/C=C\CCCCCCCC(=O)Oc1ccc(CC[n+]2c(C)cc(C)cc2C)cc1OC(=O)CCCCCCC/C=C\CCCCCCCC.F[P-](F)(F)(F)(F)F [Lipid 7AOle, 1-(3,4-dioleoyloxyphenylethyl)-2,4,6-trimethylpyridinium hexafluorophosphate]
  Tc (critical temperature), Pure: 106.8 °C
  Tc (critical temperature), With cholesterol (1:1 molar ratio): 97.3 °C

## CCCCCCCCCCCCCCCC(=O)Oc1ccc(CC[n+]2c(C)cc(C)cc2C)cc1OC(=O)CCCCCCCCCCCCCCC.F[P-](F)(F)(F)(F)F [Lipid 7APal, 1-(3,4-dipalmitoyloxyphenylethyl)-2,4,6-trimethylpyridinium hexafluorophosphate]
  Tc (critical temperature), Pure: 140.0 °C
  Tc (critical temperature), With cholesterol (1:1 molar ratio): 124.1 °C

## CCCCCCCCCCCCCCCCCC(=O)Oc1ccc(CC[n+]2c(C)cc(C)cc2C)cc1OC(=O)CCCCCCCCCCCCCCCCC.F[P-](F)(F)(F)(F)F [Lipid 7ASte, 1-(3,4-distearoyloxyphenylethyl)-2,4,6-trimethylpyridinium hexafluorophosphate]
  Tc (critical temperature), Pure: 138.8 °C
  Tc (critical temperature), With cholesterol (1:1 molar ratio): 123.9 °C

## CCCCCCCC/C=C\CCCCCCCC(=O)OCC(C[n+]1c(C)cc(C)cc1C)OC(=O)CCCCCCC/C=C\CCCCCCCC.[O-][Cl+3]([O-])([O-])[O-] (stereo not drawn) [Lipid 21AaO, 1-(2,3-Dioleoyloxypropyl)-2,4,6-trimethylpyridinium perchlorate]
  Tc (phase transition temperature): 57 °C

## CCCCCCCCCCCCCCCC(=O)OCC(C[n+]1c(C)cc(C)cc1C)OC(=O)CCCCCCCCCCCCCCC.[O-][Cl+3]([O-])([O-])[O-] (stereo not drawn) [Lipid 21AaP, 1-(2,3-Dipamitoyloxypropyl)-2,4,6-trimethylpyridinium perchlorate]
  Tc (phase transition temperature): 106 °C

## CCCCCCCCCCCCCCCCCC(=O)OCC(C[n+]1c(C)cc(C)cc1C)OC(=O)CCCCCCCCCCCCCCCCC.[O-][Cl+3]([O-])([O-])[O-] (stereo not drawn) [Lipid 21AaS, 1-(2,3-Distearoyloxypropyl)-2,4,6-trimethylpyridinium perchlorate]
  Tc (phase transition temperature): 110 °C

## CCCCCCCC/C=C\CCCCCCCC(=O)OCC(C[n+]1c(C)cc(C)cc1C)OC(=O)CCCCCCC/C=C\CCCCCCCC.F[B-](F)(F)F (stereo not drawn) [Lipid 21AbO, 1-(2,3-Dioleoyloxypropyl)-2,4,6-trimethylpyridinium tetrafluoroborate]
  Tc (phase transition temperature): 52 °C

## CCCCCCCCCCCCCCCC(=O)OCC(C[n+]1c(C)cc(C)cc1C)OC(=O)CCCCCCCCCCCCCCC.F[B-](F)(F)F (stereo not drawn) [Lipid 21AbP, 1-(2,3-Dipamitoyloxypropyl)-2,4,6-trimethylpyridinium tetrafluoroborate]
  Tc (phase transition temperature): 100 °C

## CCCCCCCCCCCCCCCCCC(=O)OCC(C[n+]1c(C)cc(C)cc1C)OC(=O)CCCCCCCCCCCCCCCCC.F[B-](F)(F)F (stereo not drawn) [Lipid 21AbS, 1-(2,3-Distearoyloxypropyl)-2,4,6-trimethylpyridinium tetrafluoroborate]
  Tc (phase transition temperature): 103 °C

## CCCCCCCCCCCCCCCC(=O)OCC(C[n+]1c(-c2ccccc2)cc(-c2ccccc2)cc1-c1ccccc1)OC(=O)CCCCCCCCCCCCCCC.[O-][Cl+3]([O-])([O-])[O-] (stereo not drawn) [Lipid 21BaP, 1-(2,3-Dipalmitoyloxypropyl)-2,4,6-triphenylpyridinium perchlorate]
  Tc (phase transition temperature): 134 °C

## CCCCCCCC/C=C\CCCCCCCC(=O)OCC(COC(=O)CCCCCCC/C=C\CCCCCCCC)[n+]1c(C)cc(C)cc1C.[O-][Cl+3]([O-])([O-])[O-] [Lipid 25AaO, 1-(1,3-Dioleoyloxypropane-2-yl)-2,4,6-trimethylpyridinium perchlorate]
  Tc (phase transition temperature): 48 °C

## CCCCCCCCCCCCCCCC(=O)OCC(COC(=O)CCCCCCCCCCCCCCC)[n+]1c(C)cc(C)cc1C.[O-][Cl+3]([O-])([O-])[O-] [Lipid 25AaP, 1-(1,3-Dipamitoyloxypropane-2-yl)-2,4,6-trimethylpyridinium perchlorate]
  Tc (phase transition temperature): 66 °C
